Experimental data: PMC11285948, “The effects of CYP2B6 inactivators on the metabolism of ciprofol” (PLOS ONE, 2024)
Where “and” joins values, the source holds several entries; their conditions need not be identical. Identical values can stand only once.

Key:
[1] = tested on: rat liver microsomes (RLMs); assay: Ciprofol metabolism in RLM incubation system (incubation time, protein concentration, enzyme kinetics); format: in vitro ADME; conditions: for reduction of ciprofol ΔC (Enzymatic reaction kinetics): ΔC1-ΔC3 and Mean; for ciprofol concentration in incubation system (Incubation time) / ciprofol concentration in incubation system (Liver microsomal protein concentration): C1-C3 and Mean; for ciprofol concentration in incubation system (Liver microsomal protein concentration): RLMs, ciprofol 25 μg·mL^-1, 40 min
Procedure: (§1) The volume of the incubation system was 200 μL and included 2 μL of substrate (ciprofol), 8 μL of rat liver microsomes (RLMs) or 6 μL of human liver microsomes (HLMs), 12 μL of NADPH generation system of solution (solution A 10 μL, solution B 2 μL), and the remaining volume was PBS. The incubation was performed in a water bath at a constant temperature of 37°C, and each sample was incubated three times in parallel.
(§2) The incubation system was removed from the water bath, and the reaction was terminated immediately by adding 800 μL of reaction termination solution (acetonitrile solution containing 5 μg·mL^-1 D6-ciprofol at 4°C). The mixture was vortexed for 2 min and centrifuged for 15 min, after which the supernatant was transferred to an autosampler vial for HPLC-MS/MS detection.
(§3) The concentrations of ciprofol and liver microsomal proteins in the RLM incubation system were set at 25 μg·mL^-1 and 0.8 mg·mL^-1, respectively, whereas those in the HLM incubation system were set at 40 μg·mL^-1 and 0.6 mg·mL^-1, respectively. Samples were obtained and assayed after 0, 10, 20, 30, 40, 60, 80, 100 and 120 min of incubation, and the optimum incubation time was determined according to the decreasing trend in ciprofol concentration.
(§4) The ciprofol concentrations in the RLM and HLM incubation systems were set at 25 and 40 μg·mL^-1, respectively. The liver microsomal protein concentrations were 0, 0.1, 0.2, 0.4, 0.6, 0.8 and 1.0 mg·mL^-1. The optimal protein concentration in the incubation system was determined based on the reduction of ciprofol (ΔC) after 40 min of incubation in RLMs and 60 min in HLMs.
(§5) The liver microsomal protein concentrations in the RLM incubation system and the HLM incubation system were 0.8 mg·mL^-1 and 0.6 mg·mL^-1, and the cells were incubated for 40 min and 60 min, respectively. The ciprofol concentrations in the incubation system were set at 4, 8, 16, 32, 48 and 80 μg·mL^-1, and the kinetic parameters of ciprofol metabolism were investigated based on ΔC values at different initial ciprofol concentrations (C0).
(§6) The substrate elimination method was employed in this study, and GraphPad Prism 8.0.2 software was used for statistical processing, including determination of the kinetic parameters of ciprofol metabolism and the IC50 values of psoralen and clopidogrel for ciprofol metabolism. The maximum velocity (Vmax), Michaelis constant (Km) and intrinsic clearance (CLint) were calculated using the […]: V=Vmax×[S]/Km+[S] CLint=Vmax/Km

[2] = tested on: human liver microsomes (HLMs); assay: Ciprofol metabolism in HLM incubation system (incubation time, protein concentration, enzyme kinetics); format: in vitro ADME; conditions: for reduction of ciprofol ΔC (Enzymatic reaction kinetics): ΔC1-ΔC3 and Mean
Procedure: as §1, §2, §3, §4, §5, §6

CC(C)c1cccc([C@H](C)C2CC2)c1O [ciprofol]
Km of ciprofol metabolism ([1]; RLMs 0.8 mg·mL^-1, 40 min): 25.11 µg/mL | Vmax of ciprofol metabolism ([1]; RLMs 0.8 mg·mL^-1, 40 min): 14.06 ng·min^-1·mg protein^-1 | reduction of ciprofol ΔC (Enzymatic reaction kinetics) ([1]; RLMs 0.8 mg·mL^-1, 40 min, initial ciprofol C 4 μg/mL): 2.12 µg/mL and 1.71 µg/mL and 2.14 µg/mL and 1.99 µg/mL | reduction of ciprofol ΔC (Enzymatic reaction kinetics) ([1]; RLMs 0.8 mg·mL^-1, 40 min, initial ciprofol C 8 μg/mL): 3.40 µg/mL and 3.72 µg/mL and 3.90 µg/mL and 3.68 µg/mL | reduction of ciprofol ΔC (Enzymatic reaction kinetics) ([1]; RLMs 0.8 mg·mL^-1, 40 min, initial ciprofol C 16 μg/mL): 5.07 µg/mL and 6.04 µg/mL and 4.94 µg/mL and 5.35 µg/mL | reduction of ciprofol ΔC (Enzymatic reaction kinetics) ([1]; RLMs 0.8 mg·mL^-1, 40 min, initial ciprofol C 32 μg/mL): 7.10 µg/mL and 8.64 µg/mL and 7.63 µg/mL and 7.79 µg/mL | reduction of ciprofol ΔC (Enzymatic reaction kinetics) ([1]; RLMs 0.8 mg·mL^-1, 40 min, initial ciprofol C 48 μg/mL): 9.57 µg/mL and 8.62 µg/mL and 8.97 µg/mL and 9.05 µg/mL | reduction of ciprofol ΔC (Enzymatic reaction kinetics) ([1]; RLMs 0.8 mg·mL^-1, 40 min, initial ciprofol C 80 μg/mL): 10.20 µg/mL and 11.72 µg/mL and 10.73 µg/mL and 10.88 µg/mL | ciprofol concentration in incubation system (Incubation time) ([1]; RLMs 0.8 mg·mL^-1, ciprofol 25 μg·mL^-1, T 0 min): 25.04 µg/mL and 26.05 µg/mL and 27.04 µg/mL and 26.04 µg/mL | ciprofol concentration in incubation system (Incubation time) ([1]; RLMs 0.8 mg·mL^-1, ciprofol 25 μg·mL^-1, T 10 min): 21.96 µg/mL and 25.48 µg/mL and 25.19 µg/mL and 24.21 µg/mL | ciprofol concentration in incubation system (Incubation time) ([1]; RLMs 0.8 mg·mL^-1, ciprofol 25 μg·mL^-1, T 20 min): 20.63 µg/mL and 19.64 µg/mL and 23.74 µg/mL and 21.34 µg/mL | ciprofol concentration in incubation system (Incubation time) ([1]; RLMs 0.8 mg·mL^-1, ciprofol 25 μg·mL^-1, T 30 min): 17.46 µg/mL and 18.48 µg/mL and 22.67 µg/mL and 19.53 µg/mL | ciprofol concentration in incubation system (Incubation time) ([1]; RLMs 0.8 mg·mL^-1, ciprofol 25 μg·mL^-1, T 40 min): 16.32 µg/mL and 16.15 µg/mL and 19.54 µg/mL and 17.34 µg/mL | ciprofol concentration in incubation system (Incubation time) ([1]; RLMs 0.8 mg·mL^-1, ciprofol 25 μg·mL^-1, T 60 min): 15.01 µg/mL and 16.57 µg/mL and 18.99 µg/mL and 16.86 µg/mL | ciprofol concentration in incubation system (Incubation time) ([1]; RLMs 0.8 mg·mL^-1, ciprofol 25 μg·mL^-1, T 80 min): 13.80 µg/mL and 14.14 µg/mL and 18.20 µg/mL and 15.38 µg/mL | ciprofol concentration in incubation system (Incubation time) ([1]; RLMs 0.8 mg·mL^-1, ciprofol 25 μg·mL^-1, T 100 min): 12.48 µg/mL and 12.69 µg/mL and 17.81 µg/mL and 14.32 µg/mL | ciprofol concentration in incubation system (Incubation time) ([1]; RLMs 0.8 mg·mL^-1, ciprofol 25 μg·mL^-1, T 120 min): 11.61 µg/mL and 11.81 µg/mL and 16.86 µg/mL and 13.43 µg/mL | ciprofol concentration in incubation system (Liver microsomal protein concentration) ([1]; Cprotein 0 mg/mL): 24.55 µg/mL and 25.68 µg/mL and 26.29 µg/mL and 25.50 µg/mL | ciprofol concentration in incubation system (Liver microsomal protein concentration) ([1]; Cprotein 0.1 mg/mL): 23.43 µg/mL and 22.66 µg/mL and 24.40 µg/mL and 23.50 µg/mL | ciprofol concentration in incubation system (Liver microsomal protein concentration) ([1]; Cprotein 0.2 mg/mL): 21.66 µg/mL and 22.34 µg/mL and 19.74 µg/mL and 21.25 µg/mL | ciprofol concentration in incubation system (Liver microsomal protein concentration) ([1]; Cprotein 0.4 mg/mL): 19.22 µg/mL and 19.23 µg/mL and 17.57 µg/mL and 18.67 µg/mL | ciprofol concentration in incubation system (Liver microsomal protein concentration) ([1]; Cprotein 0.6 mg/mL): 19.49 µg/mL and 17.16 µg/mL and 15.28 µg/mL and 17.31 µg/mL | ciprofol concentration in incubation system (Liver microsomal protein concentration) ([1]; Cprotein 0.8 mg/mL): 18.46 µg/mL and 15.72 µg/mL and 14.74 µg/mL and 16.31 µg/mL | ciprofol concentration in incubation system (Liver microsomal protein concentration) ([1]; Cprotein 1 mg/mL): 17.05 µg/mL and 19.78 µg/mL and 13.60 µg/mL and 16.81 µg/mL | Km of ciprofol metabolism ([2]; HLMs 0.6 mg·mL^-1, 60 min): 40.07 µg/mL | Vmax of ciprofol metabolism ([2]; HLMs 0.6 mg·mL^-1, 60 min): 42.39 ng·min^-1·mg protein^-1 | reduction of ciprofol ΔC (Enzymatic reaction kinetics) ([2]; HLMs 0.6 mg·mL^-1, 60 min, initial ciprofol C 4 μg/mL): 3.114 µg/mL and 3.093 µg/mL and 3.175 µg/mL and 3.13 µg/mL | reduction of ciprofol ΔC (Enzymatic reaction kinetics) ([2]; HLMs 0.6 mg·mL^-1, 60 min, initial ciprofol C 8 μg/mL): 6.89 µg/mL and 6.98 µg/mL and 7.022 µg/mL and 6.96 µg/mL | reduction of ciprofol ΔC (Enzymatic reaction kinetics) ([2]; HLMs 0.6 mg·mL^-1, 60 min, initial ciprofol C 16 μg/mL): 12.73 µg/mL and 12.88 µg/mL and 12.21 µg/mL and 12.61 µg/mL | reduction of ciprofol ΔC (Enzymatic reaction kinetics) ([2]; HLMs 0.6 mg·mL^-1, 60 min, initial ciprofol C 32 μg/mL): 17.77 µg/mL and 19.4 µg/mL and 16.95 µg/mL and 18.04 µg/mL | reduction of ciprofol ΔC (Enzymatic reaction kinetics) ([2]; HLMs 0.6 mg·mL^-1, 60 min, initial ciprofol C 48 μg/mL): 23.33 µg/mL and 25.1 µg/mL and 23.91 µg/mL and 24.11 µg/mL | reduction of ciprofol ΔC (Enzymatic reaction kinetics) ([2]; HLMs 0.6 mg·mL^-1, 60 min, initial ciprofol C 80 μg/mL): 28.42 µg/mL and 27.74 µg/mL and 27.36 µg/mL and 27.84 µg/mL | ciprofol concentration in incubation system (Incubation time) ([2]; HLMs 0.6 mg·mL^-1, ciprofol 40 μg·mL^-1, T 0 min, C1-C3 and Mean): 37.89 µg/mL and 38.98 µg/mL and 40.56 µg/mL and 39.14 µg/mL | ciprofol concentration in incubation system (Incubation time) ([2]; HLMs 0.6 mg·mL^-1, ciprofol 40 μg·mL^-1, T 10 min, C1-C3 and Mean): 36.11 µg/mL and 34.79 µg/mL and 36.39 µg/mL and 35.76 µg/mL | ciprofol concentration in incubation system (Incubation time) ([2]; HLMs 0.6 mg·mL^-1, ciprofol 40 μg·mL^-1, T 20 min, C1-C3 and Mean): 31.73 µg/mL and 29.56 µg/mL and 32.69 µg/mL and 31.33 µg/mL | ciprofol concentration in incubation system (Incubation time) ([2]; HLMs 0.6 mg·mL^-1, ciprofol 40 μg·mL^-1, T 30 min, C1-C3 and Mean): 28.14 µg/mL and 24.88 µg/mL and 28.27 µg/mL and 27.10 µg/mL | ciprofol concentration in incubation system (Incubation time) ([2]; HLMs 0.6 mg·mL^-1, ciprofol 40 μg·mL^-1, T 40 min, C1-C3 and Mean): 26.01 µg/mL and 21.75 µg/mL and 25.61 µg/mL and 24.46 µg/mL | ciprofol concentration in incubation system (Incubation time) ([2]; HLMs 0.6 mg·mL^-1, ciprofol 40 μg·mL^-1, T 60 min, C1-C3 and Mean): 21.50 µg/mL and 18.33 µg/mL and 20.08 µg/mL and 19.97 µg/mL | ciprofol concentration in incubation system (Incubation time) ([2]; HLMs 0.6 mg·mL^-1, ciprofol 40 μg·mL^-1, T 80 min, C1-C3 and Mean): 19.59 µg/mL and 17.50 µg/mL and 18.53 µg/mL and 18.54 µg/mL | ciprofol concentration in incubation system (Incubation time) ([2]; HLMs 0.6 mg·mL^-1, ciprofol 40 μg·mL^-1, T 100 min, C1-C3 and Mean): 18.42 µg/mL and 15.96 µg/mL and 17.83 µg/mL and 17.40 µg/mL | ciprofol concentration in incubation system (Incubation time) ([2]; HLMs 0.6 mg·mL^-1, ciprofol 40 μg·mL^-1, T 120 min, C1-C3 and Mean): 17.25 µg/mL and 14.82 µg/mL and 15.95 µg/mL and 16.01 µg/mL | ciprofol concentration in incubation system (Liver microsomal protein concentration) ([2]; HLMs, ciprofol 40 μg·mL^-1, 60 min, Cprotein 0 mg/mL, C1-C3 and Mean): 39.87 µg/mL and 40.23 µg/mL and 38.51 µg/mL and 39.54 µg/mL
